pEC50, pIC50: −log10 of the molar value.
How the values were obtained:
[1] = target: T1, CDC2 (Homo sapiens, UniProt P06493); assay: p34cdc2 (CDC2) kinase inhibition assay, histone H1 substrate; type: biochemical; conditions: Table 3
T1 construct: made in house; host or cells: Sf9 insect cells, baculovirus co-infection
Procedure: Cyclin-dependent kinases (p34^cdc2, p33^cdk2, p33^cdk4 and cyclins (cyclin B, E and DI) are produced in Sf9 insect cells coinfected with appropriate baculoviral constructs. The cells are harvested 68-72 hrs post infection in lysis buffer for 30 min on ice and the soluble fraction is recovered by centrifugation at 14.000 g for 10 min. The protein extract is stored at −80° C.
To carry out experiments on kinetics under linear conditions, the final point test system for kinase activity measurement is used. The kinase is added to the reaction mixture in such a way that linear activity is obtained with respect to the concentration of enzyme and with respect to time.
Inhibition of p33^cdk4 kinase is determined with Rb-GST (0.2 mg/ml) as the substrate. Kinase activity is determined at 30° C. in kinase buffer.
Tested compounds are usually dissolved to 100 mM solutions in DMSO, the final concentration of DMSO in reaction mixture never exceeds 1%. The controls contain suitable dilutions of DMSO. After 10 min, the addition of 3×SDS sample buffer stops the incubations. […] The measurement of kinase activity is done using digital image analysis. The kinase activity is expressed as a percentage of maximum activity, the apparent inhibition constants are determined by graphic analysis. Kinase buffer: 50 mM Hepes pH 7.4, 10 mM MgCl21 5 mM EGTA, 10 mM 2-glycerolphosphate,

[2] = target: IκB-α; assay: IκB-α kinase-inhibitory activity; type: biochemical; conditions: Table 3
Excerpt: Modification of 2,6,9-trisubstituted purines by a catechol-like substituent at R6 leads to an increase in cdk inhibitory activity of the tested compounds.

[3] = system: MPF activity; assay: M-phase promoting factor inhibition in metaphase-arrested Xenopus egg extracts; type: biochemical; conditions: 1.5 h after addition
Procedure: (§1) Metaphase-arrested Xenopus egg extracts were prepared as described previously by Blow “J. Cell Biol.” 1993, 122:993 and stored in liquid nitrogen. Demembranated Xenopus sperm nuclei were prepared as described by Blow & Laskey “Cell” 1986;47:577.
(§2) At concentrations of cdk inhibitors (see Table 6) ranging from 0.1-2 μM, chromosomes remained highly condensed and no nuclear envelope was visible. At 4-6 μM and higher concentrations, interphase nuclei appeared with partially decondensed chromatin and an intact nuclear envelope. […] For the inhibition effect to become detectable, the first 15-min incubation of the interphase extract is probably sufficient.

[4] = system: DNA synthesis; assay: DNA synthesis in Xenopus egg extracts ([α-32P]dATP incorporation); type: biochemical; conditions: [α-32P]dATP incorporation after 3 h; read-out: Inhibition of DNA synthesis IC50
Procedure: as §1, §2

[5] = system: T-lymphoblastic leukemia cell line CEM; assay: MTT cytotoxicity assay, CEM; type: cell-based, human; conditions: 72 hours (TCS50 in the method)
Excerpt: (§3) One of the parameters used as the basis for colorimetric assays is the metabolic activity of viable cells. For example, a microtiter assay, which uses the tetrazolium salt MTT, is now widely used to quantitate cell proliferation and cytotoxicity. For instance, this assay is used in drug screening programs and in chemosensitivity testing. Because only metabolically active cells cleave tetrazolium salts, these assays detect viable cells exclusively. In the case of MTT assay, yellow soluble tetrazolium salt is reduced to coloured water-insoluble formazan salt. After it is solubilized, the formazan formed can easily and rapidly be quantified in a conventional ELISA plate reader at 570 nm (maximum absorbance). The quantity of reduced formazan corresponds to number of vital cells in the culture. Human T-lymphoblastic leukemia cell line CEM; promyelocytic HL-60 and monocytic U937 leukemias; breast carcinoma cell lines MCF-7, BT549, MDA-MB-231; glioblastoma U87MG cells; cervical carcinoma cells HELA; sarcoma cells U20S and Saos2; hepatocellular carcinoma HepG2; mouse immortalized bone marrow macrophages B2.4 and B10A.4; P388D1 and L1210 leukemia; B16 and B16F10 melanomas were used for routine screening of the compounds according to the invention. The cells were maintained in Nunc/Corning 80 cm^2 plastic tissue culture flasks and cultured in cell culture medium (DMEM with 5 g/l glucose, 2 mM glutamine, 100 U/ml penicillin, 100 μg/ml streptomycin, 10% fetal calf serum and sodium bicarbonate).
(§4) The cell suspensions that were prepared and diluted according to the particular cell type and the, expected target cell density (2500-30000 cells per well based on cell growth characteristics) were added by pipette (80 μl) into 96-well microtiter plates. Inoculates were allowed a pre-incubation period of 24 hours at 37° C. and 5% CO2 for stabilisation. Four-fold dilutions of the intended test concentration were added at time zero in 20 μl aliquots to the microtiter plate wells. Usually, test compound was evaluated at six 4-fold dilutions. In routine testing, the highest well concentration was 266.7 μM, but it can be the matter of change dependent on the agent. All drug concentrations were examined in duplicates. Incubations of cells with the test compounds lasted for 72 hours at 37° C., in 5% CO2 atmosphere and 100% humidity. At the end of incubation period, the cells were assayed by using the MTT. Ten microliters of the MTT stock solution were pipetted into each well and incubated further for 1-4 hours. After this incubation period, formazan was solubilized by addition of 100 μl/well of 10% SDS in water (pH=5.5) followed by further incubation at 37° C. overnight. The optical density (OD) was measured at 540 nm with the Labsystem iEMS Reader MF (UK). The tumour cell survival (TCS) was calculated using the following equation: TCS=(ODdrug exposed well/mean ODcontrol wells)×100%. The TCS50 value, the drug concentration lethal to 50% of the tumour cells, was calculated from the obtained dose response curves.
(§5) The cytoxicity of novel compounds was tested on panel of cell lines of different histogenetic and species origin (Table 7). Equal activities were found in all tumour cell lines tested. […] Importantly, this observation distinguishes the purine derivatives of the invention from flavopiridol and related compounds, as their biological activity is dependent on p53 status.

[6] = system: B16 melanoma; assay: MTT cytotoxicity assay, B16; type: cell-based, mouse; conditions: 72 hours (TCS50 in the method)
Excerpt: as §3, §4, §5

[7] = system: normal human lymphocytes; assay: concanavalin A induced lymphocyte proliferation, [3H]-TdR incorporation; type: cell-based; conditions: 72 hours, read-out: ED50 (the source's name)
Procedure: Human heparinized peripheral blood was obtained from healthy volunteers by cubital vein punction. The blood was diluted in PBS (1:3) and mononuclear cells were separated by centrifugation in Ficoll-Hypaque density gradient (Pharmacia, 1.077 g/ml) at 2200 rpm for 30 minutes. Following centrifugation, lymphocytes were washed in PBS and resuspended in cell culture medium (RMPI 1640, 2 mM glutamine, 100 U/ml penicillin, 100 μg/ml streptomycin, 10% fetal calf serum and sodium bicarbonate).
The cells were diluted at target density of 1100000 cells/ml and were added by pipette (180 μl) into 96/well microtiter plates. Four-fold dilutions of the intended test concentration were added at time zero in 20 μl aliquots to the microtiter plate wells. Usually, test compound was evaluated at six 4-fold dilutions. In routine testing, the highest well concentration was 266.7 μM. All drug concentrations were examined in duplicates. All wells with exception of unstimulated controls were activated with 50 μl of concanavalin A (25 μg/ml). Incubations of cells with test compounds lasted for 72 hours at 37° C., in 5% CO2 atmosphere and 100% humidity. At the end of incubation period, the cells were assayed by using the [^3H]-TdR:
Cell cultures were incubated with […] (20 μl of stock solution 500 μCi/ml) per well for 6 hours at 37° C. and 5% CO2. The automated cell harvester was used to lyse cells in water and adsorb the DNA onto glass-fiber filters in the format of microtiter plate. The DNA incorporated [^3H]-TdR was retained on the filter while unincorporated material passes through. The filters were dried at room temperature overnight, sealed into a sample bag with 10-12 ml of scintillant. The amount of [^3H]-TdR present in each filter (in cpm) was determined by scintillation counting in a Betaplate liquid scintillation counter. The effective dose of immunosuppressant (ED) was calculated using the following equation: ED=(cpmdrug exposed well/mean cpmcontrol wells)×100%. The EDs50 value, the drug concentration inhibiting proliferation of 50% of lymphocytes, was calculated from the obtained dose response curves.
To evaluate immunosuppressive activity of substituted adenines, their ability to inhibit polyclonal mitogen induced proliferation of normal human lymphocytes was analyzed (Table 8). […] Effective immunosuppressive dose of new derivatives under in vitro conditions was close to 1-20 μM.

[8] = system: HIV-2; assay: anti-HIV-2 activity in CEM cells; type: cell-based
Procedure: (§6) The infected cell cultures were incubated at 37° C. for 5 days in a humidified CO2 incubator. The cytopathicity of the virus was examined by determination of MT-4 cell viability by trypan blue dye staining.

[9] = system: HIV-1; conditions: CEM cells
Procedure: as §6

[10] = system: MSV; assay: MSV-induced transformation in murine embryo fibroblast C3H/3T3 cells; type: cell-based; conditions: day 6 post infection
Procedure: The cells were seeded in 1-ml-wells of 48-well plates and exposed to 80 PFU (plaque forming units) for 60-90 min. The virus was subsequently removed and culture medium containing appropriate concentrations of the tested compounds was added (1 ml per well). At day 6-post infection, MSV-induced transformation of the cell culture was examined microscopically. The results are summarised in Table 9 in comparison with the data on the prototype compounds.

[11] = system: HIV-2; assay: HIV-2-induced cytopathicity in MT-4 cells; type: cell-based; conditions: for HIV-2 MT-4 IC50: MT-4 cells, 5 days
Procedure: as §6

[12] = system: HIV-1; conditions: for HIV-1 MT-4 IC50: MT-4 cells, 5 days
Procedure: as §6

[13] = system: retroviruses; assay: anti-retroviral activity in vitro; type: cell-based
Procedure: as §6

[14] = system: the cells; conditions: at 100 μg/ml

T1 sequence (P06493 whole entry, species assumed): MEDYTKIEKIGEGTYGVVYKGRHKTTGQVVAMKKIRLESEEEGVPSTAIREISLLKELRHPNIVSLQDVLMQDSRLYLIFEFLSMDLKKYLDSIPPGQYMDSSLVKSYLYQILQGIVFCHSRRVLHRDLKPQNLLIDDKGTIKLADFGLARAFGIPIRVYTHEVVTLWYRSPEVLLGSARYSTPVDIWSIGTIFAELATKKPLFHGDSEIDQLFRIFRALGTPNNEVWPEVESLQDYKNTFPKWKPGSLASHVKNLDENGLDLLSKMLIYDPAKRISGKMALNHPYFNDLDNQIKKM
T1 sequence (P14635 whole entry partner, species assumed): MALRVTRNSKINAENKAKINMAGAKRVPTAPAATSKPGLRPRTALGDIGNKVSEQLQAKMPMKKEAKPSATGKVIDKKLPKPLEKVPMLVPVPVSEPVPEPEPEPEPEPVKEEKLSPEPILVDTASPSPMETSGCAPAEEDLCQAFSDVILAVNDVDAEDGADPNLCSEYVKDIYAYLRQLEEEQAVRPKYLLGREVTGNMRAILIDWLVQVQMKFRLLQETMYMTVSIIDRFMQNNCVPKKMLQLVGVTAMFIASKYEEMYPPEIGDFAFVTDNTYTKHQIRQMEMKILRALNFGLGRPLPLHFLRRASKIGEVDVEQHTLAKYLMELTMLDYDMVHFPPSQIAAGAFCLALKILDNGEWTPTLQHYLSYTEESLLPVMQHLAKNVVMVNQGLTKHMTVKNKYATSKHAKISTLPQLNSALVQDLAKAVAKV

CC[C@H](CO)Nc1nc(N(C)CCc2ccc(O)c(O)c2)c2ncn(C(C)C)c2n1
pIC50 [1]: 6.02
pIC50 [2]: 5.49
pIC50 [3]: 5.95
pIC50 [4]: 5.89
pIC50 [5]: 5.22
pIC50 [6]: 5.22
pEC50 [7]: 5.82

Nc1nc(NCc2ccc(O)c(O)c2)c2ncn(CCOCP(=O)(O)O)c2n1
HIV-2 CEM IC50 [8]: >20 mg/L
HIV-1 CEM IC50 [9]: >20 mg/L

CN(CCc1ccc(O)c(O)c1)c1nc(N)nc2c1ncn2CCOCP(=O)(O)O
MSV IC50 [10]: 0.9 mg/L
HIV-2 MT-4 IC50 [11]: 32 mg/L
HIV-2 CEM IC50 [8]: >20 mg/L
HIV-1 CEM IC50 [9]: >20 mg/L

Nc1nc(NC(CO)c2ccccc2)c2ncn(CCOCP(=O)(O)O)c2n1 (racemic)
HIV-2 CEM IC50 [8]: >20 mg/L
HIV-1 CEM IC50 [9]: >20 mg/L

CC(Cn1cnc2c(N(C)CCc3ccc(O)c(O)c3)nc(N)nc21)OCP(=O)(O)O (centres unmarked)
HIV-2 MT-4 IC50 [11]: 3.2 mg/L
HIV-2 CEM IC50 [8]: 7.8 mg/L

CC(Cn1cnc2c(NC(CO)c3ccccc3)nc(N)nc21)OCP(=O)(O)O (centres unmarked)
HIV-2 CEM IC50 [8]: >20 mg/L
HIV-1 MT-4 IC50 [12]: 10.1 mg/L
HIV-1 CEM IC50 [9]: >20 mg/L

C[C@H](Cn1cnc2c(N)nc(N)nc21)OCP(=O)(O)O [(R)-PMPD]
selectivity index (ratio cytotoxic dose/antivirally active dose) ([11]; HIV-2): higher than 2000
EC50 retrovirus replication [13]: 0.01 to 0.1 mg/L
selectivity index (ratio cytotoxic dose/antivirally active dose) ([12]; HIV-1): higher than 2000
toxicity to the cells [14]: not toxic

CC(Cn1cnc2c(NCc3ccc(O)c(O)c3)nc(N)nc21)OCP(=O)(O)O (centres unmarked)
HIV-2 CEM IC50 [8]: 8.3 mg/L
HIV-1 MT-4 IC50 [12]: 3.2 mg/L
